pKi: −log10 of the molar value.
Legend:
[1] = target: T1, Neuropeptide Y receptor type 1 (Cavia porcellus, UniProt Q9WVD0)
T1 sequence (Q9WVD0 whole entry): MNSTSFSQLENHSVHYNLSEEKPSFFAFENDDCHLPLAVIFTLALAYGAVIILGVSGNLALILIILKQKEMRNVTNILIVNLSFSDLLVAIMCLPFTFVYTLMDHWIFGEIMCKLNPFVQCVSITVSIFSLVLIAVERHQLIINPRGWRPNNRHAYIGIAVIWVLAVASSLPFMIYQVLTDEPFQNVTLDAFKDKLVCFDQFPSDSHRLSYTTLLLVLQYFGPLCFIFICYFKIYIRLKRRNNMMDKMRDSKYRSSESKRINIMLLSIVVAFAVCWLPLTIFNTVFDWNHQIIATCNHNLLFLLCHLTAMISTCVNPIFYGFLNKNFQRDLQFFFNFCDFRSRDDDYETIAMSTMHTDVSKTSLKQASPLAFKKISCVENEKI

[2] = target: T2, Neuropeptide Y receptor type 1 (Rattus norvegicus, UniProt P21555)
T2 sequence (P21555 whole entry): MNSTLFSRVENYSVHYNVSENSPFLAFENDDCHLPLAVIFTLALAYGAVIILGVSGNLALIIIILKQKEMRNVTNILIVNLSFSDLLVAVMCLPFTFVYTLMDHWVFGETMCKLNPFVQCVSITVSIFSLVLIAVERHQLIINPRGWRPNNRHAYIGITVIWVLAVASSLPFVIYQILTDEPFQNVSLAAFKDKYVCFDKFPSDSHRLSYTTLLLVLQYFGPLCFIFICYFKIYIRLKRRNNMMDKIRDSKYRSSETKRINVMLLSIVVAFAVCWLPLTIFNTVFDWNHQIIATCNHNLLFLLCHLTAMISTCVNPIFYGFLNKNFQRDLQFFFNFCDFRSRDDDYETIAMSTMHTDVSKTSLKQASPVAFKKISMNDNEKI

| pKi [1] | pKi [2] | Molecule |
| --- | --- | --- |
| 8.31 | – | N=C(N)NCCCC(NC(=O)C(c1ccccc1)c1ccccc1)C(=O)NCc1ccc(O)cc1 (stereo not given) [NSC_5311023] |
| 8.62 | 8.85 | H-INPIYRLRY-NH2 [NPY 28-36, [P30, Y32, L34]] |
| 9.10 | 8.89 | CN(C)CC1CCC(CN=C(N)c2ccc(CC(NC(=O)C(Cc3ccccc3)NS(=O)(=O)c3ccc4ccccc4c3)C(=O)N3CCCC3)cc2)CC1 (stereo not given) [CAS_5312150] |

Source: BindingDB's records for doi:10.1016/s0196-9781(99)00098-4 (Uppsala University, 1999)
